{
  "source": "paper PMC6233196",
  "about": "(Nature Communications, 2018)",
  "key": {"GluN1 ABD": {"test_system": "GluN1 ABD", "parameters": "method as in PMID 16641235", "settings": "cited from earlier work; for Ki: isolated domains"}, "GluN1/GluN3A receptors [1]": {"biological_target": "T1, GluN1/GluN3A receptors (Rattus norvegicus, UniProt P35439+Q9R1M7)", "T1 sequence (Q9R1M7 24-1135, other chains not shown)": "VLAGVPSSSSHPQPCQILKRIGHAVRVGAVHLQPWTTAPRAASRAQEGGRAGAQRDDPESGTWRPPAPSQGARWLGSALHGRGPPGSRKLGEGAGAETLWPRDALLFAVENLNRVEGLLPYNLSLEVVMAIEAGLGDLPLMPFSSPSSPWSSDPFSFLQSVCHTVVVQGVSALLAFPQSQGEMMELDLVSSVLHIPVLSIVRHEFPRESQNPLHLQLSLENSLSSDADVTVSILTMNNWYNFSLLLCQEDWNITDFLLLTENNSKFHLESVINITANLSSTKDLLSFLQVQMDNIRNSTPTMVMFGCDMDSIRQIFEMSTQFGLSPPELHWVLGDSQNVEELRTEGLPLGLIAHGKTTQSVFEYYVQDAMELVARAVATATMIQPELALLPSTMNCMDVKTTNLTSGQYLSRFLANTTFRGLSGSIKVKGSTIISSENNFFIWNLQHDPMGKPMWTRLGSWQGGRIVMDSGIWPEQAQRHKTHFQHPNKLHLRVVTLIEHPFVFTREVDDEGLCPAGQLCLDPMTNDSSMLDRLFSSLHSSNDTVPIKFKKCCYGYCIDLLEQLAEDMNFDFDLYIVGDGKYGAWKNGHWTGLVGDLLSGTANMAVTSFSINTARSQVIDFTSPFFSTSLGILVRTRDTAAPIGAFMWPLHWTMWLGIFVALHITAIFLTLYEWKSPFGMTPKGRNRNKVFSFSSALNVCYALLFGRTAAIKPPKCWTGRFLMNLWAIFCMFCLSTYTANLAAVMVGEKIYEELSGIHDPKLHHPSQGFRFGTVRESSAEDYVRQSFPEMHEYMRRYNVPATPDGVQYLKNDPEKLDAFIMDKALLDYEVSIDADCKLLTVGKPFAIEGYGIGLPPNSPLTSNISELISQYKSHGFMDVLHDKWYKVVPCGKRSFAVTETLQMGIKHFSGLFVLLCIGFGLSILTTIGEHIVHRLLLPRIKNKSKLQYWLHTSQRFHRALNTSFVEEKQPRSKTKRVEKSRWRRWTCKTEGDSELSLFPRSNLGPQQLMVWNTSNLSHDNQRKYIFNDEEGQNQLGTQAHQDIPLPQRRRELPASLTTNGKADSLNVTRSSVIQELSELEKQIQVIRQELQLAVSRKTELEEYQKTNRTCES", "experiment": "Whole-cell patch-clamp of glycine currents in HEK293 cells expressing wild-type GluN1/GluN3A", "settings": "for Peak and steady-state current potentiation compared with CGP-78608: MDL-29951 200 nM, 7-CKA 10 µM, L-689560 1 µM pre-incubated; for Effect of reducing treatment on glycine-evoked responses: 20 min, glycine 100 µM", "experimental": "HEK293 cells were used for heterologous expression of recombinant GluN1/GluN3 receptors studied using whole-cell patch-clamp. […] Recordings were performed 24–48 h following cell transfection. The extracellular solution contained (in mM): 140 NaCl, 2.8 KCl, 1 CaCl2, 10 HEPES and 20 Sucrose (290–300 mOsm), pH adjusted to 7.3 using NaOH. […] Drugs and agonists were applied using a multi-barrel solution exchanger (RSC 200; Bio-logic). Recordings were performed at −60 mV and at room temperature. […] EC50, a and nH were set as free parameters."}, "[2]": {"biological_target": "T2, GluN1-F484A/GluN3A receptors (Rattus norvegicus, UniProt P35439+Q9R1M7, F484A)", "T2 construct": "while we record from intact (i.e. full length) membrane-imbedded receptors; expressed in transfected cells; host or cells: HEK293 cells", "T2 sequence (Q9R1M7 24-1135, other chains not shown)": "as above", "experiment": "Whole-cell patch-clamp in HEK293 cells, GluN1-F484A mutant", "type": "cell-based", "settings": "CGP-78608 500 nM", "description": "(§1) Cells were transfected using polyethylenimine with GluN1, GluN3A and GFP plasmids at a 1:3:1 ratio (0.3, 0.9 and 0.3 ng/µl respectively). Recordings were performed 24–48 h following cell transfection. […] EC50, a and nH were set as free parameters."}, "[3]": {"test_system": "CA1 pyramidal cells of GluN3A-KO mice", "experiment": "Glycine puffs onto voltage-clamped CA1 pyramidal cells, hippocampal slices of GluN3A-KO mice", "type": "cell-based, mouse", "settings": "glycine 10 mM puff", "description": "(§2) Ex-vivo electrophysiological experiments were performed on coronal slices from the brains of juvenile wild-type (WT) and GluN3A-KO mice originating from the same litters (8–12 days old). Slices were prepared as described previously. Briefly, mice were anesthetized with isofluorane before decapitation. After isolation, the portion of the brain containing the hippocampus was placed in bicarbonate-buffered saline (BBS) at 2–5 °C for a few minutes. Slices (300 μm) were then cut using a 7000 smz-2 vibratome (Campden). The slicing procedure was performed in an ice-cold solution containing (in mM): 130 K^+- gluconate, 15 KCl, 0.05 EGTA, 20 Hepes, 25 glucose, 1 CaCl2, and 6 MgCl2 supplemented with DL-APV (50 µM).\n(§3) CA1 neurons were recorded from both the ventral and the dorsal hippocampus. Cells were visualized with a combination of Dodt contrast, and an on-line video contrast enhancement. CA1 cells could be easily identified in the red light with which slices were visualized using a CoolSnap HQ2 CCD camera (Photometrics) run by MetaMorph (Universal Imaging). Whole-cell recordings were performed with an EPC-10 double amplifier (Heka Elektronik) run by PatchMaster (Heka). […] Series resistance was partially compensated (max 65%), whereas liquid junction potentials were not corrected. Recordings were performed at a holding potential of −60 mV."}, "[4]": {"biological_target": "GluN1-C744S-C798S/GluN3A-C859S-C913S receptors (Rattus norvegicus, UniProt P35439+Q9R1M7, C744S/C798S/C859S/C913S)", "sequence (Q9R1M7 24-1135 C859S/C913S, other chains not shown)": "as the sequence (Q9R1M7 24-1135, other chains not shown) above, with C836S, C890S counted along it", "settings": "CNQX 50 µM", "description": "as §1"}, "[5]": {"biological_target": "T3, GluN1/GluN3A receptors in CA1 pyramidal cells (Mus musculus, UniProt A2AIR5+P35438)", "T3 construct": "from tissue; host or cells: acute hippocampal slices (CA1 pyramidal cells) of P8-P12 wild-type mice", "T3 sequence (A2AIR5 27-1135, other chains not shown)": "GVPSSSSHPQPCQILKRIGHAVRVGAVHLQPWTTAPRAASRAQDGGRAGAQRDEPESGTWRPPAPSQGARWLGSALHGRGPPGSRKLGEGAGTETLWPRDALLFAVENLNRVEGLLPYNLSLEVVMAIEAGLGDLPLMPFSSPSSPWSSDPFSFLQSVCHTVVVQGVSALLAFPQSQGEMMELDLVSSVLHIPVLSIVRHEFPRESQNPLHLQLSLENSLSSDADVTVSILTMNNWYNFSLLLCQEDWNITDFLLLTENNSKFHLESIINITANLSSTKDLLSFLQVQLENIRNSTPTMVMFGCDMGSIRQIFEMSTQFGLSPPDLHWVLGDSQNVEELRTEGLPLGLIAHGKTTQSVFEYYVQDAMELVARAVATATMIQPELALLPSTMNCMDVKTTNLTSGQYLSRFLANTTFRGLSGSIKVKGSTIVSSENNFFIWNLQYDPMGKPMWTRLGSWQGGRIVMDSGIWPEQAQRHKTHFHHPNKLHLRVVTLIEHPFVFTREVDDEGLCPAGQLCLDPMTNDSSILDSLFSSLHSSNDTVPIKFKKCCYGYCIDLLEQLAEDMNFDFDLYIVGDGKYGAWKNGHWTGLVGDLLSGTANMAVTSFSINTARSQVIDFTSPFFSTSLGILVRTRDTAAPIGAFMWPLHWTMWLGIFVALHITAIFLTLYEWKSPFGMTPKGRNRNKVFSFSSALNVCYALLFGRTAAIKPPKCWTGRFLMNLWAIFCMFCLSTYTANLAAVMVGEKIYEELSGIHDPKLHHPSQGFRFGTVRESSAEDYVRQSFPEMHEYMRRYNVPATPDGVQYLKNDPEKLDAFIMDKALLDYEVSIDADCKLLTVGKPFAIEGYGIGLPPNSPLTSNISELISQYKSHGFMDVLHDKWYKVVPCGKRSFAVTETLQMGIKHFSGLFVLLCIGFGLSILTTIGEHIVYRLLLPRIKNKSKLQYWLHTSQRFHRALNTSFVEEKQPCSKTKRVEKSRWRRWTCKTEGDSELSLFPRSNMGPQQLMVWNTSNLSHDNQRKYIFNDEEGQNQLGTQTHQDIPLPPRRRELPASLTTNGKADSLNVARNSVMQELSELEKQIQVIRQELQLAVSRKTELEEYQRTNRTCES", "experiment": "Glycine puffs onto voltage-clamped CA1 pyramidal cells, hippocampal slices of wild-type mice", "type": "cell-based", "description": "as §2, §3"}, "HEK cells": {"test_system": "HEK cells", "experiment": "Tolerability of reducing agent when patching HEK cells", "text": "In the current work, TCEP was used on HEK cells and DTE on Xenopus oocytes.\nWhen patching HEK cells, however, we observed that\nAccordingly, we switched to TCEP,\nDTE and TCEP, while both powerful to break disulfide\nbonds, differ in their membrane permeability (DTE can cross membranes but not TCEP)."}, "GluN1 (native receptors)": {"biological_target": "GluN1 (native receptors)", "settings": "read-out: Ki for GluN1; cited from earlier work"}, "GluN1/GluN3A receptors [6]": {"biological_target": "T1, GluN1/GluN3A receptors", "experiment": "Two-electrode voltage-clamp in Xenopus oocytes expressing wild-type GluN1/GluN3A", "type": "cell-based", "parameters": "while we record from intact (i.e. full length) membrane-imbedded receptors; expressed in transfected cells; host or cells: HEK293 cells", "settings": "TCEP 5 mM, 20 min; glycine 100 µM", "description": "Oocytes from Xenopus lævis (Xenopus Express, Rennes, France) were used for heterologous expression of recombinant GluN1/GluN3A receptors studied using two-electrode voltage-clamp (TEVC). TEVC recordings were performed 3–4 days following injection. […] Each oocyte was co-injected with a mixture of GluN1 and GluN3A cDNA at a concentration of 50 ng/µl and at a 1:1 ratio. The standard external solution contained (in mM): 100 NaCl, 2.5 KCl, 0.3 BaCl2, 5 HEPES, 0.01 DTPA (diethylenetriamine-pentaacetic acid), pH 7.3. […]\nEC50, a and nH were set as free parameters."}, "GluN3A ABD": {"biological_target": "GluN3A ABD", "settings": "read-out: Glycine affinity; isolated GluN3A ABD; cited from earlier work"}},
  "note": "Entries after “also recorded” stand apart in the source; their conditions may differ.",
  "data": [
    {"smiles": "O=C(Nc1ccccc1)N[C@H]1C[C@H](C(=O)O)Nc2cc(Cl)cc(Cl)c21", "note": "(relative stereo) [L-689560, trans-2-Carboxy-5,7-dichloro-4-phenylaminocarbonylamino-1,2,3,4-tetrahydroquinoline]", "values": [
      {"measurement": "Selectivity for GluN1 vs GluN3 ABD", "setting": "GluN1 ABD; binding studies on isolated agonist-binding domains", "value": "even better than CGP-78608"},
      {"measurement": "Ki", "setting": "GluN1 ABD", "value": 29.3, "unit": "nM"},
      {"measurement": "Peak and steady-state current potentiation compared with CGP-78608", "setting": "GluN1/GluN3A receptors [1]; glycine 1 mM", "value": "orders of magnitude lower"}
    ]},
    {"smiles": "O=C(O)c1cc(O)c2ccc(Cl)cc2n1", "note": "[7-CKA, 7-Chlorokynureic acid]", "values": [
      {"measurement": "Ki", "setting": "GluN1 ABD", "value": 2600, "unit": "nM"},
      {"measurement": "Peak and steady-state current potentiation compared with CGP-78608", "setting": "GluN1/GluN3A receptors [1]; glycine 1 mM", "value": "orders of magnitude lower"}
    ]},
    {"smiles": "C[C@@H](NCc1cc(Br)cc2[nH]c(=O)c(=O)[nH]c12)P(=O)(O)O.Cl", "note": "[CGP-78608, [(1 S)-1-[[(7-Bromo-1,2,3,4-tetrahydro-2,3-dioxo-5-quinoxalinyl)methyl]amino]ethyl]phosphonic acid hydrochloride]", "values": [
      {"measurement": "Potentiating effect on GluN1-F484A mutant", "setting": "[2]", "value": "insensitive; also recorded: almost completely abolished"},
      {"measurement": "Glycine-induced inward current amplitude", "setting": "[3]; bath CGP-78608 1 µM", "value": "5.0 ± 0.6", "unit": "pA"},
      {"measurement": "Ki", "setting": "GluN1 ABD", "value": 6.4, "unit": "nM"}
    ]},
    {"smiles": "N#Cc1cc2[nH]c(=O)c(=O)[nH]c2cc1[N+](=O)[O-]", "note": "[CNQX, 6-Cyano-7-nitroquinoxaline-2,3-dione]", "values": [
      {"measurement": "Effect on tail currents following glycine removal", "setting": "[4]; glycine 100 µM", "value": "inhibited the large tail currents"},
      {"measurement": "Displacement of holding current", "setting": "[4]; no added glycine", "value": "22.9 ± 8.3", "unit": "pA"},
      {"measurement": "Outward displacement of holding current", "setting": "GluN1/GluN3A receptors [1]; CNQX 50 µM, no added glycine", "value": "0.6 ± 0.06", "unit": "pA"}
    ]},
    {"smiles": "N[C@H](CO)C(=O)O", "note": "[D-serine]", "values": [
      {"measurement": "Agonist efficacy relative to glycine", "setting": "GluN1/GluN3A receptors [1]; D-serine up to 500 µM vs glycine 100 µM, CGP-78608 500 nM", "value": "lower efficacy than glycine"}
    ]},
    {"smiles": "O=C(O)c1cc(=O)c2c(Cl)cc(Cl)cc2[nH]1", "note": "[DCKA, 5-7-Dichlorokynurenic acid]", "values": [
      {"measurement": "Glycine-induced current amplitude", "setting": "[5]; bath DCKA 500 µM in presence of CGP-78608, WT", "value": "10.2 ± 2.7", "unit": "pA"}
    ]},
    {"smiles": "O[C@H](CS)[C@@H](O)CS", "note": "[DTE, dithioerythritol]", "values": [
      {"measurement": "Tolerability by HEK cells", "setting": "HEK cells", "value": "could induce cell toxicity"}
    ]},
    {"smiles": "N[C@@H](CCC(=O)N[C@@H](CS)C(=O)NCC(=O)O)C(=O)O", "note": "[GSH, reduced glutathione]", "values": [
      {"measurement": "Effect of reducing treatment on glycine-evoked responses", "setting": "GluN1/GluN3A receptors [1]; GSH 50 mM", "value": "completely modified the current phenotype"}
    ]},
    {"smiles": "O=C(O)CCc1c(C(=O)O)[nH]c2cc(Cl)cc(Cl)c12", "note": "[MDL-29951, 2-carboxy-4,6-dichloro-1H-indole-3-propanoic acid]", "values": [
      {"measurement": "Ki", "setting": "GluN1 (native receptors)", "value": 140, "unit": "nM"},
      {"measurement": "Potentiating factors at higher concentration", "setting": "GluN1/GluN3A receptors [1]; MDL-29951 2 µM, glycine 1 mM", "value": "smaller than those observed at 200 nM"},
      {"measurement": "Peak and steady-state current potentiation compared with CGP-78608", "setting": "GluN1/GluN3A receptors [1]; glycine 1 mM", "value": "orders of magnitude lower"}
    ]},
    {"smiles": "O=C(O)CCP(CCC(=O)O)CCC(=O)O", "note": "[TCEP, Tris(2-carboxyethyl)phosphine]", "values": [
      {"measurement": "Effect of reducing treatment on glycine-evoked responses", "setting": "GluN1/GluN3A receptors [1]; TCEP 5 mM", "value": "drastic effects"},
      {"measurement": "Effect of reducing treatment on glycine-evoked currents", "setting": "GluN1/GluN3A receptors [6]", "value": "currents radically changed"}
    ]},
    {"smiles": "NCC(=O)O", "note": "[glycine, Glycine]", "values": [
      {"measurement": "Glycine-induced inward current amplitude", "setting": "[5]; glycine 10 mM puff, control conditions, WT P8-P12", "value": "9.3 ± 1.4", "unit": "pA"},
      {"measurement": "Glycine-induced inward current amplitude", "setting": "[3]; control conditions", "value": "6.0 ± 0.8", "unit": "pA"},
      {"measurement": "Kd", "setting": "GluN3A ABD", "value": 40.4, "unit": "nM"}
    ]}
  ]
}
